Results reported in patent US9932561B2, “Differentiating induced pluripotent stem cells into glucose-responsive, insulin-secreting progeny” (Mayo Foundation for Medical Education and Research, priority 2011, dated 2018).
Where no end group is shown, it is not given here.

How the values were obtained:
Type in all cases: cell-based, human
[1] = system: iPS-derived islet-like clusters; experiment: C-peptide release assay, glucose stimulated secretion, ELISA; details: for C-peptide secretion in response to glucose challenge when the agent is left out of the cocktail: HCF#1-derived islet-like clusters differentiated without ILV or without GLP-1, glucose 10 mM and 27.7 mM
Experimental: (§1) (R&D systems) and 100 ng/mL activin A (Peprotech) in advanced RPMI (A-RPMI, Invitrogen) with Pen/Strep for 1 day, followed by treatment with 100 ng/mL activin A in A-RPMI supplemented with 0.2% FBS (Invitrogen) for two days. At step two, cells were cultured in A-RPMI medium containing 50 ng/mL FGF10 (R&D systems), 0.25 μM KAAD-cyclopamine (CYC), and 2% FBS for 2 days. Cells were then treated with 50 ng/mL FGF10, 0.25 μM CYC, and 2 μM all-trans Retinoic Acid (RA) (Sigma) in DMEM (Invitrogen) supplemented with Pen/Strep, 1× B27 supplement (Invitrogen) for 4 days at step three. Cells were then cultured in the presence of 50 ng/mL FGF10, 300 nM ILV (Axxora), and 55 nM GLP-1 (Sigma) in DMEM with 1 × B27 for 4 days at step four. In step five, differentiation medium included 10 μM DAPT (Sigma) and 55 nM GLP-1 in DMEM with 1× B27 and culture lasted 6 days. Finally, in step six, cells were cultured in the presence of 50 ng/mL hepatocyte growth factor (HGF) (R&D systems), 50 ng/mL Insulin-like growth factor 1 (IGF-1) (R&D systems) and 55 nM GLP-1 in CMRL-1066 medium (Invitrogen) with 1× B27 for 6 days. All experiments were repeated more than three times.
A C-peptide release assay was performed by incubating derived islet-like clusters in Krebs-Ringer solution with bicarbonate and HEPES (KRBH; 129 mM NaCl, 4.8 mM KCl, 2.5 mM CaCl2, 1.2 mM KH2PO4, 1.2 mM MgSO4, 5 mM NaHCO3, 10 mM HEPES, and 0.1% (wt/vol) BSA). […] C-peptide or proinsulin levels were determined using an ultrasensitive C-peptide/proinsulin ELISA kit (Alpco Diagnostics).
C-peptide secretion from iPS-derived islet-like clusters in response to glucose challenge, the critical physiological function of pancreatic beta cells, was analyzed. To determine whether islet-like cells are capable of C-peptide secretion in response to glucose induction, cells were exposed to increasing concentrations of glucose and secreted C-peptide was measured by ELISA. […]

[2] = system: iPS-derived pancreatic endoderm cells; experiment: RT-PCR of pancreatic hormone and islet marker genes during guided differentiation; details: following inclusion of GLP-1 with HGF, IGF and DAPT
Experimental: as §1, with “Finally, in step six, cells were cultured in the presence of 50 ng/mL hepatocyte growth factor (HGF) (R&D systems), 50 ng/mL Insulin-like growth factor 1 (IGF-1) (R&D systems) and 55 nM GLP-1 in CMRL-1066 medium (Invitrogen) with 1× B27 for 6 days. All experiments were repeated more than three times.” left out
To determine the expression of endocrine-specific transcription factors and pancreas-specific genes throughout differentiation, the gene expression pattern was analyzed at each stage of differentiation. RT-PCR detected high levels of FOXA2 expression after 3 days of differentiation, confirming induction of definitive endoderm cells (FIG. 8A). […]

[3] = system: iPS-derived definitive endoderm cells; experiment: Induction of pancreatic endoderm from iPS-derived definitive endoderm, immunofluorescence for PDX1, NEUROD1, NGN3; details: definitive endoderm cells treated with FGF10, RA and CYC in the presence of ILV; without ILV low levels of PDX1 expression
Experimental: For immunostaining, iPS cells were fixed for 20 minutes at room temperature (RT) in 4% paraformaldehyde (PFA) in PBS, washed in PBS, and blocked for 30 minutes with 5% FBS in PBST (PBS with 0.1% Tween-20 (Sigma). Cells were stained with primary antibodies overnight at 4° C., rinsed by PBS, and incubated with secondary antibodies 1 hour at RT (Martinez-Fernandez et al., Circ. Res., 105:648-656 (2009)). Cells at different stages of differentiation were fixed and stained with primary and secondary antibodies. Primary and secondary antibodies used for characterization of iPS and derived cells were: SSEA-1, SSEA-4, TRA-1-60, TRA-1-81 (Millipore #SCR001), OCT4 (Cell Signaling Technology #2750), SOX2 (Cell Signaling Technology #2748), KLF4 (Abcam #ab26648), NANOG (Abcam #ab21624), mouse anti-S0X17 (R&D Systems #MAB1924), rabbit anti-HNF3 beta/FOXA2 (Millipore #07-633), rabbit anti-PDX1 (Santa Cruz Biotechnology #sc-25403), rabbit anti-NGN3 (Millipore #AB5684), rabbit anti-NEUROD1 (Abcam #16508), mouse anti-insulin (Sigma #I2018), rabbit anti-C-peptide (Cell Signaling Technology #4593), rabbit anti-Insulin (Cell Signaling Technology #4590), mouse anti-proinsulin C-peptide (Millipore #CBL94), mouse anti-glucagon (Abcam #ab10988), MafA (Santa Cruz Biotechnology #sc-66958), and rabbit anti-somatostatin (Dako #A0566). […]

| Compound | C-peptide secretion in response to glucose challenge when the agent is left out of the cocktail [1] | gene expression of pancreatic hormones and islet markers by RT-PCR [2] | expression of pancreatic endoderm markers [3] | C-peptide secretion ([1]; pancreatic endoderm treated with HGF, IGF, Exendin-4 and DAPT, data not shown) |
| --- | --- | --- | --- | --- |
| glucagon like peptide-1 (HAEGTFTSDVSSYLEGQAAKEFIAWLVKGR; ends and bridges not checked; UniProt P01275 98-127, looked up) [GLP-1, GLP-1 polypeptide (Sigma), used at 55 nM in the differentiation medium] | failed to secrete C-peptide | positive gene expression of pancreatic hormones | – | – |
| CC(C)[C@H]1C(=O)N[C@H](CO)Cc2c[nH]c3cccc(c23)N1C [ILV, indolactam V] | failed to secrete C-peptide | – | resulted in cells expressing PDX1, NEUROD1, and NGN3 | – |
| Exendin-4 | – | – | – | failed produce detectable C-peptide secretion |
